Measurements taken from the supplement of paper PMC10307832.

Key:
Test in all cases: relative viability (nuclei count vs DMSO), 5 days (fraction); higher = more cells survive
Kobe2602 + Trametinib = compound: C1=CC(=CC=C1NC(=S)NNC2=C(C=C(C=C2[N+](=O)[O-])C(F)(F)F)[N+](=O)[O-])F [Kobe2602] + CC(=O)Nc1cccc(-n2c(=O)n(C3CC3)c(=O)c3c(Nc4ccc(I)cc4F)n(C)c(=O)c(C)c32)c1 [Trametinib] (partner 0.02 µM)
How it was run: (§1)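 Relative viability is defined as nuclei in treated wells over nuclei in vehicle wells. Duplicate plates were run and medians reported. Lung cancer cell lines in 1536-well plates were dosed by pin tool one day after seeding, with one drug or with a fixed anchor-drug dose plus five library-drug doses (not always all listed) in √10 steps, and nuclei were counted after 5 days.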

Kobe2602 + Foretinib = compound: C1=CC(=CC=C1NC(=S)NNC2=C(C=C(C=C2[N+](=O)[O-])C(F)(F)F)[N+](=O)[O-])F [Kobe2602] + COc1cc2c(Oc3ccc(NC(=O)C4(C(=O)Nc5ccc(F)cc5)CC4)cc3F)ccnc2cc1OCCCN1CCOCC1 [Foretinib] (partner 0.25 µM)
How it was run: as §1

Kobe2602 + Tozasertib = compound: C1=CC(=CC=C1NC(=S)NNC2=C(C=C(C=C2[N+](=O)[O-])C(F)(F)F)[N+](=O)[O-])F [Kobe2602] + Cc1cc(Nc2cc(N3CCN(C)CC3)nc(Sc3ccc(NC(=O)C4CC4)cc3)n2)n[nH]1 [Tozasertib] (partner 0.1 µM)
How it was run: as §1

Zosuquidar + Foretinib = compound: O[C@@H](COc1cccc2ncccc12)CN1CCN([C@@H]2c3ccccc3[C@@H]3[C@H](c4ccccc42)C3(F)F)CC1 [Zosuquidar] + COc1cc2c(Oc3ccc(NC(=O)C4(C(=O)Nc5ccc(F)cc5)CC4)cc3F)ccnc2cc1OCCCN1CCOCC1 [Foretinib] (partner 0.25 µM)
How it was run: as §1

Cell Line | relative viability (Kobe2602 + Trametinib; first compound 0.2 µM) | relative viability (Kobe2602 + Trametinib; first compound 0.6325 µM) | relative viability (Kobe2602 + Trametinib; first compound 2 µM) | relative viability (Kobe2602 + Trametinib; first compound 6.325 µM) | relative viability (Kobe2602 + Trametinib; first compound 20 µM) | relative viability (Kobe2602 + Foretinib; first compound 0.2 µM) | relative viability (Kobe2602 + Foretinib; first compound 0.6325 µM) | relative viability (Kobe2602 + Foretinib; first compound 2 µM) | relative viability (Kobe2602 + Foretinib; first compound 6.325 µM) | relative viability (Kobe2602 + Foretinib; first compound 20 µM) | relative viability (Kobe2602 + Tozasertib; first compound 0.2 µM) | relative viability (Kobe2602 + Tozasertib; first compound 0.6325 µM) | relative viability (Kobe2602 + Tozasertib; first compound 2 µM) | relative viability (Kobe2602 + Tozasertib; first compound 6.325 µM) | relative viability (Kobe2602 + Tozasertib; first compound 20 µM) | relative viability (Zosuquidar + Foretinib; first compound 0.01 µM) | relative viability (Zosuquidar + Foretinib; first compound 0.03162 µM) | relative viability (Zosuquidar + Foretinib; first compound 0.1 µM) | relative viability (Zosuquidar + Foretinib; first compound 0.3162 µM) | relative viability (Zosuquidar + Foretinib; first compound 1 µM)
ChaGo-K-1 | 0.883 | 0.884 | 0.912 | 0.769 | 0.855 | 0.971 | 1.03 | 0.865 | 0.954 | 0.838 | 0.251 | 0.244 | 0.226 | 0.227 | 0.245 | 0.905 | 0.994 | 0.873 | 0.909 | 0.943
NCI-H1666 | 0.824 | 0.836 | 0.766 | 0.89 | 0.808 | 0.961 | 0.952 | 0.973 | 0.963 | 1.04 | 0.644 | 0.61 | 0.571 | 0.604 | 0.544 | 0.946 | 1.01 | 0.976 | 1.02 | 0.942
NCI-H441 | 0.509 | 0.496 | 0.472 | 0.433 | 0.54 | 0.884 | 0.901 | 0.978 | 1.02 | 0.914 | 0.692 | 0.638 | 0.543 | 0.708 | 0.635 | 1.06 | 1.01 | 0.866 | 1.03 | 1.2
NCI-H23 | 0.428 | 0.49 | 0.359 | 0.385 | 0.444 | 1.02 | 0.977 | 0.896 | 1.12 | 1 | 0.464 | 0.342 | 0.308 | 0.829 | 0.236 | 0.979 | 0.875 | 1.02 | 1.04 | 1.09
SW 1573 | 0.67 | 0.677 | 0.46 | 0.458 | 0.155 | 1.02 | 0.873 | 0.998 | 1 | 1.18 | 0.194 | 0.163 | 0.179 | 0.271 | 0.183 | 0.976 | 0.888 | 1.07 | 1.05 | 0.879
LU99A | 0.546 | 0.647 | 0.571 | 0.534 | 0.593 | 0.803 | 0.874 | 0.806 | 0.822 | 0.769 | 0.287 | 0.323 | 0.286 | 0.237 | 0.298 | 0.784 | 0.931 | 0.813 | 0.855 | 0.814
SK-LU-1 | 0.519 | 0.506 | 0.469 | 0.439 | 0.58 | 0.78 | 0.911 | 0.81 | 0.834 | 0.872 | 0.31 | 0.371 | 0.333 | 0.372 | 0.357 | 0.799 | 0.871 | 0.937 | 0.961 | 0.77
NCI-H2126 | 0.594 | 0.598 | 0.52 | 0.577 | 0.459 | 1.17 | 1.25 | 1.07 | 0.996 | 1.01 | 0.856 | 0.821 | 0.812 | 0.733 | 0.591 | 1.17 | 1.09 |  | 1.18 | 1.23
LXF-289 | 0.665 | 0.658 | 0.663 | 0.691 | 0.62 | 0.959 | 0.943 | 0.984 | 0.941 | 1.01 | 0.192 | 0.191 | 0.181 | 0.203 | 0.185 | 0.956 | 1.02 | 0.94 | 1.02 | 0.968
BEN | 1.01 | 1.16 | 1.17 | 1.06 | 1.14 | 0.591 | 0.706 | 0.738 | 0.58 | 0.768 | 0.56 | 0.518 | 0.491 | 0.666 | 0.555 | 0.724 | 0.55 | 0.592 | 0.61 | 0.524
LCLC-97TM1 | 0.184 | 0.186 |  | 0.207 | 0.257 | 0.834 | 0.928 | 1.01 | 0.956 | 0.924 | 0.219 | 0.292 | 0.175 | 0.186 | 0.196 | 0.922 | 0.929 | 0.9 | 1.01 | 0.974
NCI-H1993 | 0.516 | 0.489 | 0.429 | 0.507 | 0.476 | 0.789 | 0.748 | 0.689 | 0.687 | 0.642 | 0.515 | 0.549 | 0.573 | 0.53 | 0.56 | 0.758 | 0.724 | 0.701 | 0.81 | 0.673
NCI-H596 | 0.759 | 0.685 | 0.772 | 0.792 | 0.859 | 0.851 | 0.708 | 0.957 | 0.915 | 0.846 | 0.763 | 0.763 | 0.813 | 0.798 | 0.746 | 0.805 |  | 0.788 | 0.939 | 0.868
LCLC-103H | 0.651 | 0.731 | 0.674 | 0.73 | 0.644 | 0.82 | 0.905 | 0.751 | 0.832 | 0.723 | 0.498 | 0.535 | 0.469 | 0.436 | 0.479 | 0.694 | 0.678 | 0.698 | 0.844 | 0.809
HCC-78 | 0.708 | 0.891 | 0.633 | 0.768 | 0.8 | 0.628 | 0.541 | 0.669 | 0.575 | 0.577 | 0.428 | 0.413 | 0.369 | 0.314 | 0.525 | 0.549 | 0.548 |  | 0.571 | 0.606
NCI-H1975 | 0.332 | 0.333 | 0.328 | 0.29 | 0.352 | 0.99 | 0.915 | 0.788 | 0.823 | 0.931 | 0.614 | 0.432 | 0.511 | 0.689 | 0.355 | 0.959 | 0.832 | 1.02 | 0.952 | 1.02
